Where two headings read alike, the source gives them in different places.
Tests used:
Assay type in all cases: biochemical
Details in all cases: 15 nM tritium labelled cAMP, 1 hr at room temperature, SPA beads
[1] = molecular target: PDE1B (Homo sapiens, UniProt Q01064); assay: PDE1 inhibition assay (PDE1B), SPA with tritium labelled cAMP
Procedure: Reactions were initiated by addition of the cyclic nucleotide substrate, and reactions were allowed to proceed for 1 hr at room temperature before being terminated through mixing with 20 μL (0.2 mg) yttrium silicate SPA beads (PerkinElmer).

[2] = molecular target: PDE1C (Homo sapiens, UniProt Q14123); assay: PDE1 inhibition assay (PDE1C), SPA with tritium labelled cAMP
PDE1C, sequence (Q14123 whole entry): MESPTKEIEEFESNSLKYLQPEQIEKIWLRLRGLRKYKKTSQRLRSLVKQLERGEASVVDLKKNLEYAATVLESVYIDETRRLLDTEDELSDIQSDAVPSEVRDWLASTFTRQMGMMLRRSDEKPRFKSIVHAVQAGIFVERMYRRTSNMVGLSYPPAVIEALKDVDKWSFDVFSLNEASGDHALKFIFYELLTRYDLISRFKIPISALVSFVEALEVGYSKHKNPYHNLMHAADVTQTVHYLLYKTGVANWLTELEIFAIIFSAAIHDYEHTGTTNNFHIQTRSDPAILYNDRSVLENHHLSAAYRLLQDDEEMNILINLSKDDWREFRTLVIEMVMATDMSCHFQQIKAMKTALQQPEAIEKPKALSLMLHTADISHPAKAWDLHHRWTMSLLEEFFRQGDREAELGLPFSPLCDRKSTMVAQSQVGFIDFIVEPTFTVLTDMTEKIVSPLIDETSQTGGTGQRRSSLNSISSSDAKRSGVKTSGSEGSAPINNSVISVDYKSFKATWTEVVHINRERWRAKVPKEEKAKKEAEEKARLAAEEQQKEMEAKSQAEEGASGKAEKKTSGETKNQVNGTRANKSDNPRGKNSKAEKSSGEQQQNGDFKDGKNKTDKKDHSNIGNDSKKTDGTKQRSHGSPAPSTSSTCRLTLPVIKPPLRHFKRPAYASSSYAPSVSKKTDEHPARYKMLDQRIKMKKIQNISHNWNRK
Procedure: (§1) PDE1A, PDE1B and PDE1C assays were performed as follows: the assays were performed in 60 μL samples containing a fixed amount of the PDE1 enzyme (sufficient to convert 20-25% of the cyclic nucleotide substrate), a buffer (50 mM HEPES (4-(2-hydroxyethyl)-1-piperazineethanesulfonic acid) pH 7.6; 10 mM MgCl2; 0.02% Tween20), 0.1 mg/ml BSA (bovine serum albumin), 15 nM tritium labelled cAMP and varying amounts of inhibitors. Reactions were initiated by addition of the cyclic nucleotide substrate, and reactions were allowed to proceed for 1 hr at room temperature before being terminated through mixing with 20 μL (0.2 mg) yttrium silicate SPA beads (PerkinElmer). The beads were allowed to settle for 1 hr in the dark before the plates were counted in a Wallac 1450 Microbeta counter. The measured signals were converted to activity relative to an uninhibited control (100%) and IC50 values were calculated using XIFit (model 205, IDBS).

[3] = molecular target: PDE1A (Homo sapiens, UniProt P54750); assay: PDE1 inhibition assay (PDE1A), SPA with tritium labelled cAMP
PDE1A, sequence (P54750 whole entry): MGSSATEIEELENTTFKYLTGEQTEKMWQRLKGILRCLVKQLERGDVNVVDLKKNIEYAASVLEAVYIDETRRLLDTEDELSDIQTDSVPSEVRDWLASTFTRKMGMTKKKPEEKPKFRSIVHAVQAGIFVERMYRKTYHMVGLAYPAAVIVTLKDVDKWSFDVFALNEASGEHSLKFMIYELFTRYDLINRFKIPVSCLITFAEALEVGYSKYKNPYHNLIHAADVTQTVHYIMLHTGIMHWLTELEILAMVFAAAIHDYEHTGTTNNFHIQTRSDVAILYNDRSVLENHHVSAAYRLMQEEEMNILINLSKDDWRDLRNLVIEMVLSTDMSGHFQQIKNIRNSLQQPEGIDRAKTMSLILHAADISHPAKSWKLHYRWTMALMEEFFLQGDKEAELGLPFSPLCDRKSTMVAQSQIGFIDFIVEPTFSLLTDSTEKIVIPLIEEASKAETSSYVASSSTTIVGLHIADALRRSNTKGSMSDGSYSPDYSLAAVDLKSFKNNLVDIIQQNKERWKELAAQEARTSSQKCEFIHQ
Procedure: as §1

PDE1B, sequence (Q01064 whole entry): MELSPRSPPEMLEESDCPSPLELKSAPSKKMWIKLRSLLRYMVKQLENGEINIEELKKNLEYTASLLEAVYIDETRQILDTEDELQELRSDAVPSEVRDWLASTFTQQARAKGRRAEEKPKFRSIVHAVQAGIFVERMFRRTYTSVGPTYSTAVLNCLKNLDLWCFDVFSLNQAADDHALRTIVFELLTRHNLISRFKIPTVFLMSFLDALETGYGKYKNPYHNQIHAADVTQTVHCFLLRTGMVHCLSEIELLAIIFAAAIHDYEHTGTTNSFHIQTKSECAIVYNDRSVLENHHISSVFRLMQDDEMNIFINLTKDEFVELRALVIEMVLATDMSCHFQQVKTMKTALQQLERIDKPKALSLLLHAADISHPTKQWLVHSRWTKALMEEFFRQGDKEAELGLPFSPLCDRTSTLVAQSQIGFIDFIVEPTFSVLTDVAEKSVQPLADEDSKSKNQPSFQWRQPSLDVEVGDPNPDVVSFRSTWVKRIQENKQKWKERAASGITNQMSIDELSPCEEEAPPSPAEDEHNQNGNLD

IC50 ([1]; read-out: PDE1B, IC50) [nM]	IC50 [2] [nM]	IC50 [3] [nM]	Structure (SMILES)	IC50 ([1]; PDE1B, IC50 (nM)) [nM]
6.3	28	21	CCOc1cnccc1-c1cc(NCc2cnn(C)c2)c2c(C(C)C)nc(C)n2n1 [Example 70, 2-(3-ethoxy-4-pyridyl)-5-isopropyl-7-methyl-N-[(1-methylpyrazol-4-yl)methyl]imidazo[1,5-b]pyridazin-4-amine]	
2.8	30	16	CCOc1ncccc1-c1cc(NCc2nnn(C)n2)c2c(C(C)C)nn(C)c2n1 [Example 20, 6-(2-ethoxy-3-pyridyl)-3-isopropyl-1-methyl-N-[(2-methyltetrazol-5-yl)methyl]pyrazolo[3,4-b]pyridin-4-amine]	
0.64	4.9	5.8	CCOc1ncccc1-c1cc(NCc2cnn(C)c2)c2c(C(C)CC)nc(C)n2n1 (single isomer, unassigned; (+)) [Example 48, (+)-2-(2-ethoxy-3-pyridyl)-7-methyl-N-[(1-methylpyrazol-4-yl)methyl]-5-[1-methylpropyl]imidazo[1,5-b]pyridazin-4-amine]	
9	48	48	CCOc1ncccc1-c1cc(NCc2cccnc2OC)c2c(C(C)C)nc(C)n2n1 [Example 77, 2-(2-ethoxy-3-pyridyl)-5-isopropyl-N-[(2-methoxy-3-pyridyl)methyl]-7-methyl-imidazo[1,5-b]pyridazin-4-amine]	
8.8	74	48	Cc1csc(-c2cc(NCc3ncn(C)n3)c3c(C(C)C)nn(C)c3n2)n1 [Example 60, 3-isopropyl-1-methyl-6-(4-methylthiazol-2-yl)-N-[(1-methyl-1,2,4-triazol-3-yl)methyl]pyrazolo[3,4-b]pyridin-4-amine]	
4.4	13	14	CCOc1ncccc1-c1cc(NCc2cnc(C)s2)c2c(C(C)C)nn(C)c2n1 [Example 28, 6-(2-ethoxy-3-pyridyl)-3-isopropyl-1-methyl-N-[(2-methylthiazol-5-yl)methyl]pyrazolo[3,4-b]pyridin-4-amine]	
7.5	32	44	CCOc1ncccc1-c1cc(NCc2cnn(C)c2)c2c(C(C)CC)nc(C)n2n1 (single isomer, unassigned; (-)) [Example 47, (−)-2-(2-ethoxy-3-pyridyl)-7-methyl-N-[(1-methylpyrazol-4-yl)methyl]-5-[1-methylpropyl]imidazo[1,5-b]pyridazin-4-amine]	
1.2	20	14	CCOc1ncccc1-c1cc(NCc2cc(C)[nH]n2)c2c(C(C)C)nn(C)c2n1 [Example 6, 6-(2-ethoxy-3-pyridyl)-3-isopropyl-1-methyl-N-[(5-methyl-1H-pyrazol-3-yl)methyl]pyrazolo[3,4-b]pyridin-4-amine]	
52	480	290	CC(C)c1nn(C)c2nc(-c3cccn(C)c3=O)cc(NCc3ncn(C)n3)c12 [Example 56, 3-(3-isopropyl-1-methyl-4-(((1-methyl-1H-1,2,4-triazol-3-yl)methyl)amino)-1H-pyrazolo[3,4-b]pyridin-6-yl)-1-methylpyridin-2(1H)-one]	
5.3	36	30	CCOc1ncccc1-c1cc(NCc2ccn(C)n2)c2c(C(C)C)nn(C)c2n1 [Example 21, 6-(2-ethoxy-3-pyridyl)-3-isopropyl-1-methyl-N-[(1-methylpyrazol-3-yl)methyl]pyrazolo[3,4-b]pyridin-4-amine]	
0.77	4.7	5.4	CCOc1ncccc1-c1cc(NCc2nnn(C)n2)c2c(C(C)C)nc(C)n2n1 [Example 23, 2-(2-ethoxy-3-pyridyl)-5-isopropyl-7-methyl-N-[(2-methyltetrazol-5-yl)methyl]imidazo[1,5-b]pyridazin-4-amine]	
1	7	3.3	CCCOc1ncccc1-c1cc(NCc2cnn(C)c2)c2c(C(C)C)nc(C)n2n1 [Example 71, 5-isopropyl-7-methyl-N-[(1-methylpyrazol-4-yl)methyl]-2-(2-propoxy-3-pyridyl)imidazo[1,5-b]pyridazin-4-amine]	
4.3	58	56	CCOc1ncccc1-c1cc(NCc2cc[nH]n2)c2c(C(C)C)nn(C)c2n1 [Example 3, 6-(2-ethoxy-3-pyridyl)-3-isopropyl-1-methyl-N-(1H-pyrazol-3-ylmethyl)pyrazolo[3,4-b]pyridin-4-amine]	
1.5	5.7	6.1	CCOc1ncccc1-c1cc(NCc2cnc(C)s2)c2c(C(C)C)nc(C)n2n1 [Example 17, 2-(2-ethoxy-3-pyridyl)-5-isopropyl-7-methyl-N-[(2-methylthiazol-5-yl)methyl]imidazo[1,5-b]pyridazin-4-amine]	
4.1	14	21	CCOc1ncccc1-c1cc(NCc2nc(C)no2)c2c(C(C)C)nc(C)n2n1 [Example 46, 2-(2-ethoxy-3-pyridyl)-5-isopropyl-7-methyl-N-[(3-methyl-1,2,4-oxadiazol-5-yl)methyl]imidazo[1,5-b]pyridazin-4-amine]	
3.6	29	33	CCOc1ncccc1-c1cc(NCc2cccnc2F)c2c(C(C)C)nc(C)n2n1 [Example 73, 2-(2-ethoxy-3-pyridyl)-N-[(2-fluoro-3-pyridyl)methyl]-5-isopropyl-7-methyl-imidazo[1,5-b]pyridazin-4-amine]	
4.6	31	29	Cc1sccc1-c1cc(NCc2ncn(C)n2)c2c(C(C)C)nn(C)c2n1 [Example 58, 3-isopropyl-1-methyl-6-(2-methyl-3-thienyl)-N-[(1-methyl-1,2,4-triazol-3-yl)methyl]pyrazolo[3,4-b]pyridin-4-amine]	
7.8	37	42	CCOc1ncccc1-c1cc(NCc2nnc(C)o2)c2c(C(C)C)nc(C)n2n1 [Example 45, 2-(2-ethoxy-3-pyridyl)-5-isopropyl-7-methyl-N-[(5-methyl-1,3,4-oxadiazol-2-yl)methyl]imidazo[1,5-b]pyridazin-4-amine]	
4.6	46	32	Cc1ncsc1-c1cc(NCc2ncn(C)n2)c2c(C(C)C)nn(C)c2n1 [Example 61, 3-isopropyl-1-methyl-N-((1-methyl-1H-1,2,4-triazol-3-yl)methyl)-6-(4-methylthiazol-5-yl)-1H-pyrazolo[3,4-b]pyridin-4-amine]	
2.6	18	14	CCOc1ncccc1-c1cc(NCc2ccnc(OC)c2)c2c(C(C)C)nn(C)c2n1 [Example 7, 6-(2-ethoxy-3-pyridyl)-3-isopropyl-N-[(2-methoxy-4-pyridyl)methyl]-1-methyl-pyrazolo[3,4-b]pyridin-4-amine]	
4.3	31	57	CCOc1ncccc1-c1cc(NCc2cc[nH]n2)c2c(C(C)CC)nc(C)n2n1 (single isomer, unassigned; (+)) [Example 51, (+)-2-(2-ethoxy-3-pyridyl)-7-methyl-N-(1H-pyrazol-3-ylmethyl)-5-[1-methylpropyl]imidazo[1,5-b]pyridazin-4-amine]	
0.42	5.2	3.4	CCCOc1ncccc1-c1cc(NCc2ncn(C)n2)c2c(C(C)C)nn(C)c2n1 [Example 33, 3-isopropyl-1-methyl-N-[(1-methyl-1,2,4-triazol-3-yl)methyl]-6-(2-propoxy-3-pyridyl)pyrazolo[3,4-b]pyridin-4-amine]	
6.3	18	16	CCOc1ncccc1-c1cc(NCc2cncc(OC)c2)c2c(C(C)C)nn(C)c2n1 [Example 25, 6-(2-ethoxy-3-pyridyl)-3-isopropyl-N-[(5-methoxy-3-pyridyl)methyl]-1-methyl-pyrazolo[3,4-b]pyridin-4-amine]	

Structure (SMILES)	IC50 ([1]; read-out: PDE1B, IC50) [nM]	IC50 [2] [nM]	IC50 [3] [nM]	IC50 ([1]; PDE1B, IC50 (nM)) [nM]
Cc1coc(-c2cc(NCc3ncn(C)n3)c3c(C(C)C)nn(C)c3n2)n1 [Example 59, 3-isopropyl-1-methyl-N-((1-methyl-1H-1,2,4-triazol-3-yl)methyl)-6-(4-methyloxazol-2-yl)-1H-pyrazolo[3,4-b]pyridin-4-amine]		67	99	14
CCOc1ncccc1-c1cc(NCc2cnn(C)n2)c2c(C(C)C)nn(C)c2n1 [Example 26, 6-(2-ethoxypyridin-3-yl)-3-isopropyl-1-methyl-N-((2-methyl-2H-1,2,3-triazol-4-yl)methyl)-1H-pyrazolo[3,4-b]pyridin-4-amine]		75	110	18
CCOc1ncccc1-c1cc(NCc2ncon2)c2c(C(C)C)nc(C)n2n1 [Example 43, 2-(2-ethoxy-3-pyridyl)-5-isopropyl-7-methyl-N-(1,2,4-oxadiazol-3-ylmethyl)imidazo[1,5-b]pyridazin-4-amine]	5.8	34	40	

Reference: patent US10351561B2, “Pyrazolo[3,4-b]pyridines and imidazo[1,5-b]pyridazines as PDE1 inhibitors” (H. Lundbeck A/S, priority 2016, dated 2019)
